{"source": "ChEMBL document CHEMBL1641416", "about": "“2-Arylbenzoxazoles as CETP inhibitors: raising HDL-C in cynoCETP transgenic mice” (Bioorg Med Chem Lett, 2011)", "key": {"in vivo [1]": {"experiment": "in vivo", "conditions": "mouse", "description": "Half life in wild type mouse"}, "in vivo [2]": {"experiment": "in vivo", "conditions": "mouse", "remark": "listed apart in the source", "description": "Clearance in wild type mouse"}, "in vivo [3]": {"experiment": "in vivo", "conditions": "mouse, po", "description": "Oral bioavailability in wild type mouse"}}, "data": [{"compound": "Cc1cc(C#N)cc2nc(-c3ccc(NC(=O)CN4CCN(c5ccc(C(F)(F)F)cc5)CC4)cc3)oc12", "values": [{"measurement": "half-life", "setting": "in vivo [1]", "value": 4.1, "unit": "h"}, {"measurement": "clearance", "setting": "in vivo [2]", "value": 25, "unit": "mL/min/kg"}, {"measurement": "bioavailability", "setting": "in vivo [3]", "value": 56, "unit": "%"}]}]}
